Values of other authors, collected in US9597338B2, “Shell-and-core dosage form approaching zero-order drug release” (Depomed, Inc., priority 2000, dated 2017).

Conditions: oral; doses administered with or following a meal

- Area under the plasma concentration-time curve with or following a meal: two to three times greater
- Peak plasma concentration with or following a meal: two to three times greater
Compound: Cc1c(O)cccc1C(=O)N[C@@H](CSc1ccccc1)[C@H](O)CN1C[C@H]2CCCC[C@H]2C[C@H]1C(=O)NC(C)(C)C [nelfinavir]
